The values that follow come from DBAASP.

The structures appear in SMILES notation. In brackets after ≈: the same amount, converted by molar mass.

Common to all, as to assay: ≥ marks a high value that may be exact or a test limit, other limits are often not marked, values filed in µg/mL are converted to µM
The test system of test [1] is Escherichia coli ATCC 25922.
The subject of test [2] is Staphylococcus aureus ATCC 25923.
Test [3] relates to Pseudomonas aeruginosa ATCC 27853.

Consider `CC(C)C[C@H](NC(=O)[C@H](CC(N)=O)NC(=O)[C@H](CCCCN)NC(=O)[C@H](CCCN=C(N)N)NC(=O)[C@@H]1CCCN1C(=O)[C@H](C)N)C(=O)N[C@@H](CCCCN)C(=O)N[C@@H](Cc1c[nH]c2ccccc12)C(=O)O` [APRKNLKW], for which the MIC (as a rule, the least concentration at which growth counts as inhibited) in test [1] came to 31.6 µM (≈ 32 µg/mL).

`CC(C)[C@H](NC(=O)[C@H](CC(N)=O)NC(=O)[C@H](CCCCN)NC(=O)[C@H](CCCN=C(N)N)NC(=O)[C@@H]1CCCN1C(=O)[C@H](C)N)C(=O)N[C@@H](CCCN=C(N)N)C(=O)N[C@@H](Cc1c[nH]c2ccccc12)C(=O)O` [APRKNVRW] displayed a minimal inhibitory concentration (MIC) in test [1] of 62.4 µM (≈ 64 µg/mL).

For `CC(C)C[C@H](NC(=O)[C@H](C)NC(=O)[C@H](CCCCN)NC(=O)[C@H](C)NC(=O)[C@H](CC(C)C)NC(=O)[C@H](CC(=O)O)NC(=O)[C@@H](N)CCC(=O)O)C(=O)N[C@@H](C)C(=O)N[C@@H](CCCCN)C(=O)N[C@@H](CCCCN)C(=O)O` [EDLAKALAKK], the MIC in test [1] came out at 4600 µM (≈ 5000 µg/mL); in test [2], 2300 µM (≈ 2500 µg/mL).

Regarding `CSCC[C@H](NC(=O)[C@H](CCCN=C(N)N)NC(=O)[C@H](Cc1c[nH]c2ccccc12)NC(=O)[C@H](CCC(N)=O)NC(=O)[C@H](Cc1c[nH]c2ccccc12)NC(=O)[C@H](CCCN=C(N)N)NC(=O)[C@H](CCCN=C(N)N)NC(=O)[C@H](CS)NC(=O)[C@H](CCCCN)NC(=O)[C@@H](N)Cc1ccccc1)C(=O)N[C@@H](CCCCN)C(=O)O` [FKCRRWQWRMK], the MIC in test [1] and in test [2] was 30.8 µM (≈ 50 µg/mL) in each case.

`CC[C@H](C)[C@H](NC(=O)CNC(=O)[C@H](CC(N)=O)NC(=O)[C@@H](NC(=O)[C@@H](NC(=O)CNC(=O)[C@@H](NC(=O)[C@H](CCCCN)NC(=O)[C@@H](NC(=O)CNC(=O)[C@H](CCCCN)NC(=O)CNC(=O)[C@@H](NC(=O)[C@@H](NC(=O)[C@H](CCCCN)NC(=O)[C@@H]1CCCN1C(=O)[C@H](Cc1ccccc1)NC(=O)[C@@H](NC(=O)CN)[C@@H](C)CC)[C@@H](C)CC)[C@@H](C)CC)[C@@H](C)CC)[C@@H](C)O)[C@@H](C)CC)C(C)C)C(=O)N[C@@H](CCCCN)C(=O)N[C@@H](CO)C(=O)N[C@@H](CC(C)C)C(=O)N[C@H](C(=O)N[C@@H](CCCCN)C(=O)NCC(=O)N[C@H](C(=O)NCC(=O)N[C@@H](CCSC)C(=O)N[C@@H](CCCCN)C(=O)N[C@H](C(=O)N[C@@H](Cc1ccccc1)C(=O)N[C@@H](CCCCN)C(=O)N[C@@H](C)C(=O)NCC(=O)N[C@@H](CC(C)C)C(=O)N[C@@H](CC(N)=O)C(=O)N[C@@H](CC(N)=O)C(=O)N[C@H](C(=O)NCC(=O)N[C@@H](CC(N)=O)C(=O)N[C@H](C(=O)NCC(=O)N[C@H]1CSSC[C@@H](C(=O)O)NC(=O)[C@H](CCC(=O)O)NC(=O)[C@H](CC(=O)O)NC(=O)[C@H](CCC(=O)O)NC(=O)[C@H](CC(N)=O)NC1=O)[C@@H](C)O)[C@@H](C)CC)C(C)C)C(C)C)C(C)C` [GIFPKIIGKGIKTGIVNGIKSLVKGVGMKVFKAGLNNIGNTGCNEDEC] gave a minimum inhibitory concentration (MIC) in test [1] of 1 µM (≈ 4.93 µg/mL).

In test [1], `CC[C@H](C)[C@H](NC(=O)[C@H](CCCCN)NC(=O)[C@H](CC(C)C)NC(=O)[C@H](CC(C)C)NC(=O)[C@@H]1CCCN1C(=O)CNC(=O)[C@H](CC(C)C)NC(=O)[C@H](CCCCN)NC(=O)CN)C(=O)N[C@@H](C)C(=O)N[C@@H](C)C(=O)N[C@@H](CCCCN)C(=O)N[C@H](C(=O)NCC(=O)N[C@@H](CO)C(=O)N[C@@H](CC(N)=O)C(=O)N[C@@H](CC(C)C)C(=O)N[C@@H](CC(C)C)C(N)=O)C(C)C` [GKLGPLLKIAAKVGSNLL] showed an MIC of 12.5 µM (≈ 22.4 µg/mL).

In the case of `CC[C@H](C)[C@H](NC(=O)[C@H](CCCN=C(N)N)NC(=O)[C@H](CCCCN)NC(=O)[C@H](CC(C)C)NC(=O)[C@H](CC(C)C)NC(=O)CN)C(=O)N[C@@H](CCCCN)C(=O)N[C@H](C(=O)N[C@@H](CC(C)C)C(N)=O)[C@@H](C)O` [GLLKRIKTL], the minimal inhibitory concentration (MIC) in test [1] and in test [2] was above 41.3 µM in each case.

Regarding `CC[C@H](C)[C@H](NC(=O)[C@H](CCCN=C(N)N)NC(=O)[C@H](CCCCN)NC(=O)[C@H](CC(C)C)NC(=O)[C@H](CC(C)C)NC(=O)[C@@H](N)CCCCN)C(=O)N[C@@H](CCCCN)C(=O)N[C@H](C(=O)N[C@@H](CC(C)C)C(=O)N[C@@H](CC(C)C)C(N)=O)[C@@H](C)O` [KLLKRIKTLL], the values for the MIC in test [1] and in test [2] were 19.6 µM (≈ 24 µg/mL) and above 19.6 µM, respectively.

As for `CC(C)C[C@H](NC(=O)[C@H](CCCN=C(N)N)NC(=O)[C@@H](N)CCCCN)C(=O)N[C@@H](CCCN=C(N)N)C(=O)N[C@@H](CCCN=C(N)N)C(=O)N[C@H](C(=O)N[C@@H](Cc1c[nH]c2ccccc12)C(=O)N[C@@H](CCCN=C(N)N)C(=O)N[C@@H](CCCN=C(N)N)C(=O)N[C@@H](Cc1c[nH]c2ccccc12)C(=O)N[C@@H](CCCN=C(N)N)C(N)=O)C(C)C` [KRLRRVWRRWR], the MIC in test [3] was determined as 20 µM (≈ 33.3 µg/mL); in test [1], 30 µM (≈ 50 µg/mL); in test [2], 5 µM (≈ 8.34 µg/mL).

Take `CC[C@H](C)[C@H](NC(=O)[C@H](Cc1c[nH]c2ccccc12)NC(=O)[C@H](CCCCN)NC(=O)[C@H](Cc1c[nH]c2ccccc12)NC(=O)[C@H](Cc1c[nH]c2ccccc12)NC(=O)[C@H](CCCCN)NC(=O)[C@H](CCCCN)NC(=O)[C@H](Cc1c[nH]c2ccccc12)NC(=O)[C@@H](N)CCCCN)C(N)=O` [KWKKWWKWI]: the minimum inhibitory concentration (MIC) in test [1] was found to be 5.76 µM (≈ 7.99 µg/mL).

As for `CC[C@H](C)[C@H](NC(=O)[C@H](CCCN=C(N)N)NC(=O)[C@H](CCCCN)NC(=O)[C@H](CC(C)C)NC(=O)[C@@H](N)CC(C)C)C(=O)N[C@@H](CCCCN)C(=O)N[C@H](C(=O)N[C@@H](CC(C)C)C(=O)N[C@@H](CC(C)C)C(N)=O)[C@@H](C)O` [LLKRIKTLL], the MIC in test [1] is 54.7 µM (≈ 59.9 µg/mL); in test [2], above 54.7 µM.

Consider `CC(C)C[C@H](NC(=O)[C@@H](NC(=O)[C@H](CCCCN)NC(=O)[C@H](CCCCN)NC(=O)[C@@H](NC(=O)[C@H](CCCN=C(N)N)NC(=O)[C@H](CCCCN)NC(=O)[C@@H](NC(=O)[C@@H](N)CC(C)C)C(C)C)C(C)C)C(C)C)C(=O)O` [LVKRVKKVL], for which the MIC in test [3] stood at 64 µM (≈ 69.3 µg/mL).

Turning to `CC(C)C[C@H](NC(=O)[C@H](C)NC(=O)[C@@H](N)CO)C(=O)N[C@H](C(=O)NCC(=O)N[C@H]1CSSC[C@@H](C(=O)N[C@@H](Cc2ccccc2)C(=O)NCC(=O)N[C@@H](CCCN=C(N)N)C(=O)O)NC(=O)[C@@H]2CCCN2C(=O)[C@H](CCCCN)NC(=O)[C@@H]2CCCN2C(=O)[C@@H]2CCCN2C(=O)[C@H](Cc2ccc(O)cc2)NC(=O)[C@H](CO)NC(=O)[C@H](CCCCN)NC(=O)[C@H]([C@@H](C)O)NC(=O)[C@H](Cc2c[nH]c3ccccc23)NC1=O)C(C)C` [SALVGCWTKSYPPKPCFGR], the MIC in test [2] stood at 6 µM (≈ 12.6 µg/mL).

Compound `CSCC[C@H](NC(=O)[C@H](Cc1cnc[nH]1)NC(=O)[C@H](C)NC(=O)[C@H](CCSC)NC(=O)[C@@H](NC(=O)[C@H](CCCCN)NC(=O)[C@@H]1CCCN1C(=O)[C@H](CC(C)C)NC(=O)[C@@H](N)C(C)C)C(C)C)C(=O)N[C@@H](CCCCN)C(=O)O` [VLPKVMAHMK] registered an MIC in test [3] of 32 µM (≈ 36.9 µg/mL).

`CC(C)C[C@H](NC(=O)[C@@H](N)C(C)C)C(=O)N[C@H](C(=O)N1CCC[C@H]1C(=O)N[C@@H](CCC(N)=O)C(=O)NCC(=O)N[C@@H](Cc1ccccc1)C(=O)N[C@@H](C)C(=O)N[C@H](C(=O)N[C@H](C(=O)N[C@@H](CCCCN)C(=O)N[C@@H](CCCCN)C(=O)N[C@@H](C)C(=O)N[C@@H](CC(N)=O)C(=O)N[C@@H](Cc1ccccc1)C(=O)N[C@H](C(=O)N[C@@H](C)C(=O)N[C@@H](Cc1ccccc1)C(=O)N[C@@H](Cc1ccc(O)cc1)C(=O)N[C@H](C(=O)O)[C@@H](C)O)C(C)C)C(C)C)C(C)C)C(C)C` [VLVPQGFAVVKKANFVAFYT] had an MIC in test [1] of 233 µM (≈ 512 µg/mL).
